Data as given in patent US8318489B2, “Prostacyclin directed differentiation of cardiomyocytes from human embryonic stem cells” (priority 2005, dated 2012).

How the values were obtained:
Assay type in all cases: cell-based, human
[1] = system: hES cells; assay: Cardiomyocyte quantification via cytospin (MF-20 / αMHC staining); details: for cardiomyocyte yield compared to bSFS alone: L-IGF-I 5.0 ng/ml, AA 5.0 μM, FGF2 […] into bSFS
Protocol: EBs were washed twice with PBS (without calcium and magnesium) and dissociated to single cells using trypsin (Invitrogen). […] The cell pellet was resuspended in PBS and a cell count performed. 100,000 cells were spun at 500 rpm for 5 min onto glass slides at low acceleration using a cytospin system (Shandon). Adherent cells were fixed, stained and the total cell number (DAPI staining of cell nuclei) and the number of sarcomeric alpha myosin heavy chain positive cells (αMHC, MF-20 Ab, Hybridoma Bank, Iowa; 1:200 followed by respective rabbit-anti mouse Cy3-labeled secondary Ab 1:500, Zymed) were counted in at least 3 independent fields of view at 20× magnification with at least 300 nuclei per field; fields were randomly selected in the DAPI channel (Zeiss Axiovert 200M, Zeiss) avoiding bias towards cardiomyocyte content. The percentage of cardiomyocytes compared to the total cell nuclei number was calculated.
Readouts were performed on day 13. […] The percentage of cardiomyocytes was counted via cytospin and the cardiomyocyte yield was calculated from the total cell count per well and the percentage of cardiomyocytes. Results are presented in Table 2 which provides an analysis on day 12 EBs differentiated in the presence of respective media added with substances as indicated in the table. Differentiation was performed in suspension in a low attachment 6-well format. Average numbers per well of a 6-well plate are presented.

[2] = system: Transgenic hES cells carrying α-MHCneo; assay: G418 selection of transgenic hES-derived cardiomyocytes, MF-20 staining
Protocol: Transgenic hES cells carrying α-MHCneo were differentiated in END-2 conditioned media as described in Example 8 and then selected with 200 µg/ml or 400 μg/ml G418 for various periods. Cells were dissociated by trypsin and plated onto chamber slides. Transgenic cardiomyocytes that were not selected with G418 were also plated as a control. Cells were then fixed by 2% paraformaldehyde and stained with the MF-20 antibody, which recognizes cardiac α-MHC. Cells were counterstained with haematoxylin to reveal nuclei. Cells […] for MF-20 staining in each slide preparation were counted and calculated as a percentage of total nuclei.

[3] = system: hES cells; assay: Embryoid body differentiation of hES cells, visual scoring of beating EBs; details: for effect on induction of cardiomyocytes: supplemented to DMEM3 (giving bSFS); for CM induction activity (number of beating areas): growth factor 10 ng/ml added to END2-CM, day 12, compared to END2-CM alone
Protocol: This procedure describes the formation of embryoid bodies (EB) from collagenase-derived hES cell cultures. After formation the EBs were then exposed to END2 conditioned medium (CM).
Enzymatically passaged hES cells grown on feeder cells were washed once with PBS^+ and treated with Collagenase IV (1 mg/ml) for 3-4 min at 37° C. The Collagenase IV solution was replaced by DMEM and the cells were mechanically dissociated with a pipette tip. Cells were then harvested using a cell scraper and the cell suspension was transferred to a 50 ml tube (Falcon). Cell clumps were collected by gravity and the supernatant was aspirated. Cells were resuspended in fresh DMEM medium aiming to uniformly disperse the cell clumps in the suspension. An equal volume of the cell suspension was then transferred to ultra low attachment plates (Costar). Usually 6-well plates were used and cells were cultured in 2 ml of medium. Alternatively, cells can be seeded into plates under conditions supporting cell adherence to induce differentiation of hES cells attached to a surface.
In suspension culture, EBs are formed in ultra low attachment plates in SF medium over night. After over night incubation SF medium was replaced by fresh SF medium or END2-CM respectively for further differentiation. Subsequent medium changes were performed every 3-4 days. Usually, cells were cultured over a period of 12-13 days before the visual analysis of the proportion of beating EBs under a microscope was performed followed by cell collection for additional readouts. Multiple beating areas on single EBs were not counted separately. Values are expressed as a percentage of contracting EBs compared to […] in a single well of a 6-well tray. Cell harvest and analysis at time points other then 12-13 days after EB formation is indicated in the respective examples and figures of this embodiment. For EB scoring and other analytical methods hES cell differentiation was performed in triplicates applying the same culture conditions (e.g. the same medium added) in 3 independent wells of a 6-well plate. An average value per well was calculated and presented.

[4] = system: hES cells; assay: Real time RT-PCR for cardiac markers (α-MHC, ANF)
Protocol: RNA extraction: EBs at the end of the twelve day period were harvested. […] Trizol (Invitrogen) was added before freezing the EBs at -80° C. to ease cell lysis. Frozen samples were thawed and […]. Chloroform was added to the sample and incubated for 3 min at room temperature. The sample was centrifuged for 15 min at 13000 rpm at 4° C. and the aqueous phase collected. An equal volume of 70% ethanol was added before the sample was loaded onto an RNeasy mini column (Qiagen). The column was centrifuged for 15 sec at ≧8000 g. The rest of the purification steps were performed according to manufacturer's instructions. RNA was eluted in RNase-free water. 5 μg of the RNA sample was then treated with DNase (Invitrogen) in a volume of 50 μl. The mixture was incubated at room temperature for 30 min and heat inactivated for 10 min at 80° C. before cooling rapidly on ice. […] Samples were incubated for 1 hour at 37° C. before the reaction was terminated for 5 min at 95° C. RT-PCR was performed using 100 ng of cDNA with the following conditions: Cycle 1 (40×) denaturation at 95° C. for 10 s, annealing at 58° C. for 30 s and extension at 72° C. for 45 s. Melting curve step was included at the end with the following conditions: […] The gene primers used are α-MHC (sense primer: […] NO: 1); antisense primer: […] (sense primer: […] NO: 3); antisense primer […] NO: 4)) and β-Actin (sense primer: […] […]

[5] = system: H3M11 cardiomyocytes; assay: Microelectrode array recording of selected cardiomyocytes; details: 10 μM isoproterenol; from 46 beats/min before addition
Source text: H3M11, one of the transgenic hES lines carrying the mouse α-MHCneo transgene, was differentiated in END-2 conditioned media to induce cardiomyocytes and then selected with G418 for 1 week. G418-selected H3M11 cardiomyocytes were dissociated and plated on microelectrode array chips each containing 64 electrodes (Multi Channel Systems MCS GmbH, Reutlingen, Germany). Extracellular recordings were made with the MEA1060 amplifier and MC-Rack software. Sampling rate was 10 kHz. A control recording was made before addition of compounds.

[6] = insulin 0.1-10 μg/ml added to END2-CM

CC(=O)O [AA, acetic acid]
cardiomyocyte yield compared to bSFS alone [1]: some increase

CN[C@@H]1[C@@H](O)[C@@H](O[C@@H]2[C@@H](O)[C@H](O[C@H]3O[C@H]([C@@H](C)O)[C@@H](O)[C@H](O)[C@H]3N)[C@@H](N)C[C@H]2N)OC[C@]1(C)O [G418]
Percent cardiomyocytes ([2]; G418 200 μg/ml for 10 days): 99.02% | Percent cardiomyocytes ([2]; G418 200 μg/ml for 16 days): 99.20% | Percent cardiomyocytes ([2]; G418 400 μg/ml 13 days): 99.53% | Percent cardiomyocytes ([2]; G418 400 μg/ml for 7 days): 99.85% | cells positive for the cardiac marker ([2]; two different G418 concentrations for various days): greater than 99%

CCCCC[C@H](O)/C=C/[C@@H]1[C@H]2C/C(=C/CCCC(=O)[O-])O[C@H]2C[C@H]1O.[Na+] [PGI2, (5Z,9α,11α,13E,15S)-6,9-Epoxy-11,15-dihydroxyprosta-5,13-dien-1-oic acid Sodium salt]
cardiomyocyte inducing activity ([3]; PGI2 0.2 and 2.0 μM in bSFS): increase in cardiomyocyte inducing activity to levels similar to that observed with END2-CM | percentage of beating EBs ([3]; PGI2 2, 20, 200, 2000 nM in DMEM3, day 12, in comparison with basic DMEM3): significant increases | percentage of the overall cell population that forms cardiomyocytes ([1]; bSFS+PGI2, cytospin MF20): equivalent to that observed in END2-CM cultures | expression of cardiomyocyte marker genes α-MHC and ANF ([4]; bSFS+PGI2 compared to END-CM): equivalent, if not enhanced expression

O=[Se]([O-])[O-].[Na+].[Na+] [Selenium, sodium Selenite]
effect on induction of cardiomyocytes [3]: not inhibitory

CC(C)NCC(O)c1ccc(O)c(O)c1 (stereo not shown) [isoproterenol]
beating frequency [5]: 70 beats/min

FGF2: Basic Fibroblast Growth Factor; Invitrogen
cardiomyocyte yield compared to bSFS alone [1]: some increase

Igf2: recombinant human Igf2 (R&D)
CM induction activity (number of beating areas) [3]: enhance CM induction activity

Scf: recombinant human Scf, stem cell factor (CytoLab)
CM induction activity (number of beating areas) [3]: enhance CM induction activity

Transferrin: medium supplement, 0.0055 mg/ml Transferrin (Roche)
effect on induction of cardiomyocytes [3]: not inhibitory

insulin: Insulin (Roche) spiked into END2-CM
cardiomyocyte formation from hESC ([3]; insulin 10 μg/ml added to END2-CM): complete inhibition | cardiomyocyte formation from hESC [3, 6]: dose dependent inhibition | relative expression of early cardiomyocyte markers (MesP1, NRx2.5, ANF, α-MHC) [4, 6]: dose dependent decrease in expression
